Laboratory results: PubChem BioAssay AID328 (DTP/NCI, 2004)
Where “and” joins values, the source holds several entries; their conditions need not be identical. Equal entries are not always repeated. Toxic doses and inconclusive results are not listed.

System: BDF1 mice, P388 leukemia ip, median survival T/C
Experiment: NCI In Vivo Anticancer Drug Screen. Data for tumor model P388 Leukemia (intraperitoneal) in B6D2F1 (BDF1) mice
Conditions: endpoint: median survival time, higher = longer survival
In short: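 T/C = treated-group survival ÷ vehicle-control survival; tumour transplanted into mice before dosing.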

[1] = dose: 50.0 mg/kg/injection, schedule: Q01DX009 (ip), vehicle: saline with Tween-80
[2] = dose: 100.0 mg/kg/injection, schedule: Q01DX009 (ip), vehicle: saline with Tween-80
[3] = dose: 100.0 mg/kg/injection, schedule: Q04DX003 (ip), vehicle: saline
[4] = dose: 200.0 mg/kg/injection, schedule: Q01DX009 (ip), vehicle: saline with Tween-80
[5] = dose: 200.0 mg/kg/injection, schedule: Q04DX003 (ip), vehicle: saline
[6] = dose: 400.0 mg/kg/injection, schedule: Q04DX003 (ip), vehicle: saline with Tween-80
[7] = dose: 400.0 mg/kg/injection, schedule: Q04DX003 (ip), vehicle: saline
[8] = dose: 6.25 mg/kg/injection, schedule: Q01DX009 (ip), vehicle: Klucel (hydroxypropylcellulose) (HPC)
[9] = dose: 12.5 mg/kg/injection, schedule: Q01DX009 (ip), vehicle: Klucel (hydroxypropylcellulose) (HPC)
[10] = dose: 25.0 mg/kg/injection, schedule: Q01DX009 (ip), vehicle: Klucel (hydroxypropylcellulose) (HPC)
[11] = dose: 50.0 mg/kg/injection, schedule: Q01DX009 (ip), vehicle: Klucel (hydroxypropylcellulose) (HPC)

Compound: O=CN(c1ccccc1)c1ccccc1
- T/C [1]: 110 % of control
- T/C (dose: 100.0 mg/kg/injection, schedule: Q01DX001 (ip), vehicle: other): 104 % of control
- T/C [2]: 95 % of control
- T/C (dose: 100.0 mg/kg/injection, schedule: Q04DX003 (ip), vehicle: other): 91 % of control
- T/C [3]: 95 % of control
- T/C (dose: 175.0 mg/kg/injection, schedule: Q04DX003 (ip), vehicle: saline with Tween-80): 115 % of control
- T/C (dose: 200.0 mg/kg/injection, schedule: Q01DX001 (ip), vehicle: other): 108 % of control
- T/C [4]: 100 % of control
- T/C (dose: 200.0 mg/kg/injection, schedule: Q04DX003 (ip), vehicle: other): 116 % of control
- T/C [5]: 100 % of control
- T/C (dose: 400.0 mg/kg/injection, schedule: Q01DX001 (ip), vehicle: other): 87 % of control
- T/C (dose: 400.0 mg/kg/injection, schedule: Q01DX009 (ip), vehicle: saline with Tween-80): 105 % of control
- T/C [6]: 150 % of control
- T/C [7]: 86 % of control

Compound: CC(=O)N1c2ccccc2Sc2ccc3ccc(C(=O)CCl)cc3c21
- T/C [2]: 153 % of control

Compound: COc1cc(OC)c2c[n+](C)c3c4cc(OC)c(OC)cc4ccc3c2c1
- T/C [8]: 154 % of control
- T/C [9]: 154 % of control and 169 % of control
- T/C [10]: 170 % of control and 172 % of control
- T/C [11]: 155 % of control and 180 % of control

Compound: CS(=O)(=O)OCCCCOS(C)(=O)=O
- T/C (dose: 6.25 mg/kg/injection, schedule: Q01DX010 (ip), vehicle: saline): 100 % of control and 119 % of control
- T/C (dose: 12.5 mg/kg/injection, schedule: Q01DX009 (ip), vehicle: saline with Tween-80): 113 % of control
- T/C (dose: 12.5 mg/kg/injection, schedule: Q01DX010 (ip), vehicle: saline): 122 % of control
- T/C (dose: 20.0 mg/kg/injection, schedule: Q01DX010 (ip), vehicle: other): 120 % of control
- T/C (dose: 25.0 mg/kg/injection, schedule: Q01DX009 (ip), vehicle: saline with Tween-80): 104 % of control
- T/C (dose: 40.0 mg/kg/injection, schedule: Q01DX010 (ip), vehicle: other): 120 % of control
- T/C [1]: 104 % of control
- T/C (dose: 60.0 mg/kg/injection, schedule: Q01DX010 (ip), vehicle: other): 120 % of control

Compound: CC(C)Cc1[nH]nc2c1C(=O)C(Nc1ccccc1)=CC2=O
- T/C (dose: 100.0 mg/kg/injection, schedule: Q04DX003 (ip), vehicle: saline with Tween-80): 99 % of control
- T/C (dose: 200.0 mg/kg/injection, schedule: Q04DX003 (ip), vehicle: saline with Tween-80): 100 % of control
- T/C [6]: 100 % of control

Compound: C1CNC2NCCNC2N1 (centres undefined)
- T/C (dose: 66.0 mg/kg/injection, schedule: Q04DX003 (ip), vehicle: saline): 104 % of control
- T/C [3]: 100 % of control
- T/C (dose: 117.0 mg/kg/injection, schedule: Q04DX003 (ip), vehicle: saline): 109 % of control
- T/C (dose: 132.0 mg/kg/injection, schedule: Q01DX009 (ip), vehicle: saline): 156 % of control
- T/C (dose: 150.0 mg/kg/injection, schedule: Q04DX003 (ip), vehicle: saline): 100 % of control
- T/C (dose: 178.0 mg/kg/injection, schedule: Q04DX003 (ip), vehicle: saline): 154 % of control
- T/C [5]: 120 % of control
- T/C (dose: 266.0 mg/kg/injection, schedule: Q04DX003 (ip), vehicle: saline): 122 % of control
- T/C (dose: 300.0 mg/kg/injection, schedule: Q01DX009 (ip), vehicle: saline): 150 % of control
- T/C (dose: 400.0 mg/kg/injection, schedule: Q01DX009 (ip), vehicle: saline): 150 % of control
- T/C [7]: 172 % of control

Compound: O=C(O)C1(C(=O)O)CCC1.[NH2-].[NH2-].[Pt+2]
- T/C (dose: 43.2 mg/kg/injection, schedule: Q01DX001 (ip), vehicle: saline): 120 % of control

Compound: Nc1nc(Cl)nc2c1ncn2C1OC(CO)C(O)C1O (centres undefined)
- T/C (dose: 12.5 mg/kg/injection, schedule: Q01DX010 (ip), vehicle: carboxymethylcellulose (CMC)): 123 % of control
- T/C (dose: 50.0 mg/kg/injection, schedule: Q01DX010 (ip), vehicle: carboxymethylcellulose (CMC)): 161 % of control
- T/C (dose: 100.0 mg/kg/injection, schedule: Q01DX010 (ip), vehicle: carboxymethylcellulose (CMC)): 238 % of control
- T/C (dose: 112.5 mg/kg/injection, schedule: Q01DX009 (ip), vehicle: saline): 159 % of control and 191 % of control
- T/C (dose: 168.75 mg/kg/injection, schedule: Q01DX009 (ip), vehicle: saline): 177 % of control

Compound: C/C(=N/N(C)C)c1nc(N)nc(N)c1-c1ccc(Cl)cc1
- T/C (dose: 25.0 mg/kg/injection, schedule: Q01DX001 (ip), vehicle: saline with Tween-80): 102 % of control
- T/C (dose: 50.0 mg/kg/injection, schedule: Q01DX001 (ip), vehicle: saline with Tween-80): 109 % of control
- T/C (dose: 100.0 mg/kg/injection, schedule: Q01DX001 (ip), vehicle: saline with Tween-80): 90 % of control and 96 % of control

Compound: CCN(CC)CCCC(C)Nc1c2ccc(C)cc2nc2ccc(OC)cc12 (centres undefined)
- T/C [1]: 123 % of control

Compound: Nc1c(Cl)c(Cl)nc(C(=O)O)c1Cl
- T/C (dose: 2.5 mg/kg/injection, schedule: Q01DX009 (ip), vehicle: saline): 102 % of control
- T/C (dose: 5.0 mg/kg/injection, schedule: Q01DX009 (ip), vehicle: saline): 106 % of control
- T/C [8]: 104 % of control
- T/C (dose: 10.0 mg/kg/injection, schedule: Q01DX009 (ip), vehicle: saline): 113 % of control
- T/C [9]: 95 % of control
- T/C (dose: 20.0 mg/kg/injection, schedule: Q01DX009 (ip), vehicle: saline): 115 % of control
- T/C [10]: 104 % of control
- T/C (dose: 40.0 mg/kg/injection, schedule: Q01DX009 (ip), vehicle: saline): 106 % of control
- T/C [11]: 106 % of control
- T/C (dose: 100.0 mg/kg/injection, schedule: Q01DX009 (ip), vehicle: Klucel (hydroxypropylcellulose) (HPC)): 98 % of control

Compound: O=c1c2ccccc2[nH]c2cc3c(=O)c4ccccc4[nH]c3cc12
- T/C [1]: 99 % of control
- T/C [2]: 95 % of control
- T/C [4]: 93 % of control
